{"source": "paper PMC11992225", "about": "“Antibacterial compounds against non-growing and intracellular bacteria” (npj Antimicrobials and Resistance, 2025)", "key": {"P. aeruginosa DSM1117": {"system": "P. aeruginosa DSM1117", "test": "MIC, standard microdilution assay, growing P. aeruginosa", "format": "cell-based, Pseudomonas aeruginosa", "settings": "P. aeruginosa; CA-MHB pH 7.4; read-out: MIC (μM) CA-MHB", "procedure,_shortened": "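MICs come from microdilution in CA-MHB/40 mM HEPES pH 7.4 for the UPEC, Pseudomonas and Staphylococcus strains, and in TSB for Shigella. UPEC also tested in LPM/30 mM MES pH 5.5.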"}, "non-growing UPEC CFT073 [1]": {"system": "non-growing UPEC CFT073", "test": "Dilution-regrowth assay (screen, hit validation, dose-response) on stationary-phase UPEC", "format": "cell-based, Escherichia coli", "procedure,_shortened": "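Regrowth (OD600 after 6 h, 37 °C) of diluted non-growing CFT073, following 24 h compound treatment of 24 h stationary cultures, defines activity relative to untreated control. Screen at 20 µM, validation at 20, 10, 5 µM (duplicates), dose–response in three biological replicates fitted by five-parameter logistic.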"}, "non-growing UPEC CFT073 [2]": {"system": "non-growing UPEC CFT073", "test": "Dose-dependent killing analysis (CFU spot-plating) of stationary-phase UPEC", "format": "cell-based, Escherichia coli", "settings": "E. coli in LPM (pH 5.5)", "procedure,_shortened": "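Non-growing (stationary-phase) UPEC CFT073 treated with compounds in 96-well format at 200 μl, then 10-fold serially diluted in PBS and 10 μl spots plated on LB agar. Plates incubated overnight at 37 °C; colonies counted at lowest resolvable dilution to give CFU. Three biological replicates.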"}, "[3]": {"system": "non-growing P. aeruginosa DSM1117", "test": "Dose-dependent killing analysis (CFU spot-plating) of stationary-phase P. aeruginosa", "format": "cell-based, Pseudomonas aeruginosa", "settings": "P. aeruginosa", "protocol": "The cultures were grown and treated for 24 h in 1:4 CA-MHB (pH 7.4).\nFor survival analysis, bacteria were cultivated as described for the dose–response dilution-regrowth assay. Assays with UPEC were conducted at the CBCS screening facility using 96-well plates with a 200 μl sample volume, and compounds were dispensed using the Echo® (Labcyte) system. P. aeruginosa and S. aureus samples were treated according to the protocol used for the dilution-regrowth experiments. Treated samples were serially diluted 10-fold in PBS, and 10 μl drops were spot-plated onto rectangular LB agar plates using either a Beckman NXP robot (for UPEC) or an Integra VIAFLO96 electronic pipette (for P. aeruginosa and S. aureus). The LB agar plates were incubated overnight at 37 °C and scanned. Colonies were counted at the spots of the lowest dilution where individual colonies could be accurately distinguished. Each colony was manually marked on a separate image layer using the GNU Image Manipulation Program, and counted using NIST’s Integrated Colony Enumerator (NICE 1.4) software. The experiments were performed in three biological replicates."}}}
{"smiles": "CC(=O)[O][Pt]([NH2])([Cl])([Cl])([NH]C1CCCCC1)[O]C(C)=O", "note": "[Satraplatin]", "values": [{"measurement": "MIC", "setting": "P. aeruginosa DSM1117", "value": 160, "unit": "µM"}, {"measurement": "Regrowth, OD600 at 6h or 8h after dilution into drug-free medium (average)", "setting": "non-growing UPEC CFT073 [1]; E. coli in 1:4 CA-MHB (pH 7.4), drug concentration 0.25", "value": 0.615}, {"measurement": "Regrowth, OD600 at 6h or 8h after dilution into drug-free medium (average)", "setting": "non-growing UPEC CFT073 [1]; E. coli in 1:4 CA-MHB (pH 7.4), drug concentration 0.5", "value": 0.612}, {"measurement": "Regrowth, OD600 at 6h or 8h after dilution into drug-free medium (average)", "setting": "non-growing UPEC CFT073 [1]; E. coli in 1:4 CA-MHB (pH 7.4), drug concentration 1", "value": 0.620}, {"measurement": "Regrowth, OD600 at 6h or 8h after dilution into drug-free medium (average)", "setting": "non-growing UPEC CFT073 [1]; E. coli in 1:4 CA-MHB (pH 7.4), drug concentration 2.5", "value": 0.601}, {"measurement": "Regrowth, OD600 at 6h or 8h after dilution into drug-free medium (average)", "setting": "non-growing UPEC CFT073 [1]; E. coli in 1:4 CA-MHB (pH 7.4), drug concentration 5", "value": 0.592}, {"measurement": "Regrowth, OD600 at 6h or 8h after dilution into drug-free medium (average)", "setting": "non-growing UPEC CFT073 [1]; E. coli in 1:4 CA-MHB (pH 7.4), drug concentration 10", "value": 0.597}, {"measurement": "Regrowth, OD600 at 6h or 8h after dilution into drug-free medium (average)", "setting": "non-growing UPEC CFT073 [1]; E. coli in 1:4 CA-MHB (pH 7.4), drug concentration 30", "value": 0.570}, {"measurement": "Regrowth, OD600 at 6h or 8h after dilution into drug-free medium (average)", "setting": "non-growing UPEC CFT073 [1]; E. coli in LPM (pH 5.5), drug concentration 0.25", "value": 0.566}, {"measurement": "Regrowth, OD600 at 6h or 8h after dilution into drug-free medium (average)", "setting": "non-growing UPEC CFT073 [1]; E. coli in LPM (pH 5.5), drug concentration 0.5", "value": 0.557}, {"measurement": "Regrowth, OD600 at 6h or 8h after dilution into drug-free medium (average)", "setting": "non-growing UPEC CFT073 [1]; E. coli in LPM (pH 5.5), drug concentration 1", "value": 0.558}, {"measurement": "Regrowth, OD600 at 6h or 8h after dilution into drug-free medium (average)", "setting": "non-growing UPEC CFT073 [1]; E. coli in LPM (pH 5.5), drug concentration 2.5", "value": 0.474}, {"measurement": "Regrowth, OD600 at 6h or 8h after dilution into drug-free medium (average)", "setting": "non-growing UPEC CFT073 [1]; E. coli in LPM (pH 5.5), drug concentration 5", "value": 0.354}, {"measurement": "Regrowth, OD600 at 6h or 8h after dilution into drug-free medium (average)", "setting": "non-growing UPEC CFT073 [1]; E. coli in LPM (pH 5.5), drug concentration 10", "value": 0.251}, {"measurement": "Regrowth, OD600 at 6h or 8h after dilution into drug-free medium (average)", "setting": "non-growing UPEC CFT073 [1]; E. coli in LPM (pH 5.5), drug concentration 30", "value": 0.087}, {"measurement": "EC50", "setting": "non-growing UPEC CFT073 [1]; E. coli, LPM pH 5.5, regrowth delay of non-growing bacteria, 24 h treatment, OD600 6 h after 2500-fold dilution, read-out: EC50", "value": 7.62, "unit": "µM"}, {"measurement": "activity against non-growing UPEC in LPM (pH 5.5) compared to 1:4 CA-MHB (pH 7.4)", "setting": "non-growing UPEC CFT073 [1]; regrowth delay and killing, Figs. 2 and 3", "value": "potentiated by the low pH"}, {"measurement": "killing, average Δlog10(CFU/ml)", "setting": "non-growing UPEC CFT073 [2]; drug concentration 0.25", "value": "0.465 log10(CFU/ml)"}, {"measurement": "log10(CFU/ml) after treatment, replicate 1", "setting": "non-growing UPEC CFT073 [2]; drug concentration 0.25", "value": "6.778 log10(CFU/ml)"}, {"measurement": "log10(CFU/ml) after treatment, replicate 2", "setting": "non-growing UPEC CFT073 [2]; drug concentration 0.25", "value": "6.431 log10(CFU/ml)"}, {"measurement": "log10(CFU/ml) after treatment, replicate 3", "setting": "non-growing UPEC CFT073 [2]; drug concentration 0.25", "value": "7.447 log10(CFU/ml)"}, {"measurement": "killing, average Δlog10(CFU/ml)", "setting": "non-growing UPEC CFT073 [2]; drug concentration 0.5", "value": "0.567 log10(CFU/ml)"}, {"measurement": "log10(CFU/ml) after treatment, replicate 1", "setting": "non-growing UPEC CFT073 [2]; drug concentration 0.5", "value": "7.041 log10(CFU/ml)"}, {"measurement": "log10(CFU/ml) after treatment, replicate 2", "setting": "non-growing UPEC CFT073 [2]; drug concentration 0.5", "value": "6.079 log10(CFU/ml)"}, {"measurement": "log10(CFU/ml) after treatment, replicate 3", "setting": "non-growing UPEC CFT073 [2]; drug concentration 0.5", "value": "7.230 log10(CFU/ml)"}, {"measurement": "killing, average Δlog10(CFU/ml)", "setting": "non-growing UPEC CFT073 [2]; drug concentration 1", "value": "0.828 log10(CFU/ml)"}, {"measurement": "log10(CFU/ml) after treatment, replicate 1", "setting": "non-growing UPEC CFT073 [2]; drug concentration 1", "value": "6.778 log10(CFU/ml)"}, {"measurement": "log10(CFU/ml) after treatment, replicate 2", "setting": "non-growing UPEC CFT073 [2]; drug concentration 1", "value": "6.176 log10(CFU/ml)"}, {"measurement": "log10(CFU/ml) after treatment, replicate 3", "setting": "non-growing UPEC CFT073 [2]; drug concentration 1", "value": "6.613 log10(CFU/ml)"}, {"measurement": "killing, average Δlog10(CFU/ml)", "setting": "non-growing UPEC CFT073 [2]; drug concentration 2.5", "value": "1.360 log10(CFU/ml)"}, {"measurement": "log10(CFU/ml) after treatment, replicate 1", "setting": "non-growing UPEC CFT073 [2]; drug concentration 2.5", "value": "6.954 log10(CFU/ml)"}, {"measurement": "log10(CFU/ml) after treatment, replicate 2", "setting": "non-growing UPEC CFT073 [2]; drug concentration 2.5", "value": "5.903 log10(CFU/ml)"}, {"measurement": "log10(CFU/ml) after treatment, replicate 3", "setting": "non-growing UPEC CFT073 [2]; drug concentration 2.5", "value": "5.114 log10(CFU/ml)"}, {"measurement": "killing, average Δlog10(CFU/ml)", "setting": "non-growing UPEC CFT073 [2]; drug concentration 5", "value": "1.695 log10(CFU/ml)"}, {"measurement": "log10(CFU/ml) after treatment, replicate 1", "setting": "non-growing UPEC CFT073 [2]; drug concentration 5", "value": "6.146 log10(CFU/ml)"}, {"measurement": "log10(CFU/ml) after treatment, replicate 2", "setting": "non-growing UPEC CFT073 [2]; drug concentration 5", "value": "5.778 log10(CFU/ml)"}, {"measurement": "log10(CFU/ml) after treatment, replicate 3", "setting": "non-growing UPEC CFT073 [2]; drug concentration 5", "value": "5.041 log10(CFU/ml)"}, {"measurement": "killing, average Δlog10(CFU/ml)", "setting": "non-growing UPEC CFT073 [2]; drug concentration 10", "value": "2.758 log10(CFU/ml)"}, {"measurement": "log10(CFU/ml) after treatment, replicate 1", "setting": "non-growing UPEC CFT073 [2]; drug concentration 10", "value": "5.778 log10(CFU/ml)"}, {"measurement": "log10(CFU/ml) after treatment, replicate 2", "setting": "non-growing UPEC CFT073 [2]; drug concentration 10", "value": "=<4 log10(CFU/ml)"}, {"measurement": "log10(CFU/ml) after treatment, replicate 3", "setting": "non-growing UPEC CFT073 [2]; drug concentration 10", "value": "=<4 log10(CFU/ml)"}, {"measurement": "killing, average Δlog10(CFU/ml)", "setting": "[3]; drug concentration 0.1", "value": "-0.012 log10(CFU/ml)"}, {"measurement": "log10(CFU/ml) after treatment, replicate 1", "setting": "[3]; drug concentration 0.1", "value": "8.699 log10(CFU/ml)"}, {"measurement": "log10(CFU/ml) after treatment, replicate 2", "setting": "[3]; drug concentration 0.1", "value": "9.301 log10(CFU/ml)"}, {"measurement": "log10(CFU/ml) after treatment, replicate 3", "setting": "[3]; drug concentration 0.1", "value": "8.699 log10(CFU/ml)"}, {"measurement": "killing, average Δlog10(CFU/ml)", "setting": "[3]; drug concentration 0.5", "value": "0.420 log10(CFU/ml)"}, {"measurement": "log10(CFU/ml) after treatment, replicate 1", "setting": "[3]; drug concentration 0.5", "value": "8.477 log10(CFU/ml)"}, {"measurement": "log10(CFU/ml) after treatment, replicate 2", "setting": "[3]; drug concentration 0.5", "value": "8.845 log10(CFU/ml)"}, {"measurement": "log10(CFU/ml) after treatment, replicate 3", "setting": "[3]; drug concentration 0.5", "value": "8.079 log10(CFU/ml)"}, {"measurement": "killing, average Δlog10(CFU/ml)", "setting": "[3]; drug concentration 2.5", "value": "1.880 log10(CFU/ml)"}, {"measurement": "log10(CFU/ml) after treatment, replicate 1", "setting": "[3]; drug concentration 2.5", "value": "7.845 log10(CFU/ml)"}, {"measurement": "log10(CFU/ml) after treatment, replicate 2", "setting": "[3]; drug concentration 2.5", "value": "8.477 log10(CFU/ml)"}, {"measurement": "log10(CFU/ml) after treatment, replicate 3", "setting": "[3]; drug concentration 2.5", "value": "4.699 log10(CFU/ml)"}, {"measurement": "killing, average Δlog10(CFU/ml)", "setting": "[3]; drug concentration 10", "value": "3.310 log10(CFU/ml)"}, {"measurement": "log10(CFU/ml) after treatment, replicate 1", "setting": "[3]; drug concentration 10", "value": "5.000 log10(CFU/ml)"}, {"measurement": "log10(CFU/ml) after treatment, replicate 2", "setting": "[3]; drug concentration 10", "value": "6.778 log10(CFU/ml)"}, {"measurement": "log10(CFU/ml) after treatment, replicate 3", "setting": "[3]; drug concentration 10", "value": "4.954 log10(CFU/ml)"}]}
